T1: Tyrosinase (Homo sapiens, UniProt P14679)
T1 sequence (P14679 whole entry): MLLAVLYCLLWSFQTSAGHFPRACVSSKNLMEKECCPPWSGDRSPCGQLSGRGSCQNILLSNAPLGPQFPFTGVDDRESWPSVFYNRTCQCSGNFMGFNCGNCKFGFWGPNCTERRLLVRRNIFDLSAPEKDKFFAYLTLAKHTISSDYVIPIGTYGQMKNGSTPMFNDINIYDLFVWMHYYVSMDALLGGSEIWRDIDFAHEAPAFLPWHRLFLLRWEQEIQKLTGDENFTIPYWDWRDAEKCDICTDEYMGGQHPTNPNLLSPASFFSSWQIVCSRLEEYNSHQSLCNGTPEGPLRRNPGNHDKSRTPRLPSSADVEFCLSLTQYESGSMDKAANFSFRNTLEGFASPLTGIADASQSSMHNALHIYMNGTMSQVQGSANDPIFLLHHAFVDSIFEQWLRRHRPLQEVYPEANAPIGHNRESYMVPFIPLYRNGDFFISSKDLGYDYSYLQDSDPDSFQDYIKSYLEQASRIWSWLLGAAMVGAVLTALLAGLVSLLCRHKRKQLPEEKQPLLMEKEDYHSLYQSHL

B1: Tyrosinase (Homo sapiens), P14679 (protein)
chain: T1 sequence (P14679 whole entry)

The target of the first data set is T1, Tyrosinase. As to the kind of experiment: Inhibition of human tyrosinase.
Conditions: not given
A word on the IC50: it is the concentration that inhibits the measured activity by half. Low values mean inhibition by little substance, high ones a need for much substance. Molecule `Oc1cccc(O)c1` [RESORCINOL] returned an IC50 of more than 3000 µM.

Another data set addresses T1, Tyrosinase.
Assay: not given
Conditions: not given
Consider `COc1cccc2c1O/C(=C\c1ccc(O)cc1O)C2=O`, for which the IC50 turned out to be 80 µM.
On the same count and under the same terms, under `O=C1/C(=C/c2ccc(O)cc2O)Oc2ccc(O)cc21` stands 19 µM; under `O=C1/C(=C/c2ccc(O)cc2O)Oc2c(O)cccc21`, 1.57 µM; under `O=c1cc(-c2ccc(O)cc2O)oc2ccccc12`, more than 100 µM.
For `O=C1/C(=C/c2ccc(=O)n(O)c2)Oc2cc(O)ccc21`, the IC50 is 15 µM.
On the same count and under the same terms, to `COc1ccc2c(c1)O/C(=C\c1ccc(O)cc1O)C2=O` belongs 6.9 µM; to `O=C1/C(=C/c2ccc(O)cc2O)Oc2cccc(O)c21`, 25 µM.
`O=C1/C(=C/c2ccc(O)cc2O)Sc2cc(O)ccc21` gave an IC50 of 5.8 µM.
Consider `O=C1/C(=C/c2ccc(O)cc2O)Oc2c1ccc(O)c2O`, for which the IC50 stood at 11.8 µM.
Take `CCCCOc1ccc2c(c1)O/C(=C\c1ccc(O)cc1O)C2=O`: the IC50 is more than 100 µM.
For the molecule `CCCCc1ccc(O)cc1O` [RUCINOL], inhibition was half-maximal at 8.3 µM (IC50).
Same read-out and setting: to `Oc1ccc(Cc2cc3cccc(O)c3o2)c(O)c1` belongs more than 100 µM; to `COc1ccc2c(c1C)O/C(=C\c1ccc(O)cc1O)C2=O`, more than 100 µM; to `O=c1c2ccccc2[nH]n1Cc1ccc(O)cc1O`, more than 100 µM.
`O=C(/C=C/c1ccc(O)cc1O)c1ccccc1` registered an IC50 of 60 µM.
`CC1/C(=C\c2ccc(O)cc2O)C(=O)c2ccccc21` (centres undefined) came in with an IC50 of 8.2 µM.
`O=C1/C(=C/c2ccc(O)cc2O)Nc2ccccc21` came in with an IC50 of 12.7 µM.
In the case of `Cc1c(O)ccc2c1O/C(=C\c1ccc(O)cc1O)C2=O`, the IC50 stood at 80 µM.
On the same count and under the same terms, under `O=C1/C(=C/c2ccc(O)cc2O)Oc2cc(O)ccc21` stands 6.4 µM; under `O=C1C(=Cc2ccc(O)cc2O)C(=O)c2ccccc21`, more than 100 µM.
For the molecule `CN(C)c1cc(O)c2c(c1)O/C(=C\c1ccc(O)cc1O)C2=O`, half-maximal inhibition (IC50) was put at 18.4 µM.
On to `O=C1/C(=C/c2ccc(O)cc2O)Cc2c(O)cccc21`, for which 1.6 µM corresponded to half-maximal inhibition (IC50).
With `O=C1/C(=C/c2ccc(O)cc2O)Cc2ccccc21`, the midpoint of inhibition, the IC50, lay at 5.8 µM.
The same measure, in the same setting: to `O=C1/C(=C/c2ccc(O)cc2O)Cc2cc(O)ccc21` belongs 3.4 µM; to `Cc1c(C(=O)c2ccc(O)cc2O)oc2c(O)cccc12`, more than 100 µM; to `O=C1/C(=C/c2ccc(O)cc2O)Oc2cc(O)cc(O)c21`, 7.7 µM.
On the same count and under the same terms, under `O=C1/C(=C/c2ccc(O)cc2O)Sc2c(O)cccc21` stands 48 µM; under `COc1ccc2c(c1OC)O/C(=C\c1ccc(O)cc1O)C2=O`, more than 100 µM.
Turning to `O=C1/C(=C/c2ccc(O)cc2O)Oc2cc(F)cc(F)c21`, the IC50 came to 88 µM.
Same read-out and setting: under `O=C1/C(=C/c2ccc(O)cc2O)Oc2cc(Cl)ccc21` stands more than 100 µM; under `O=C1/C(=C/c2ccc(O)cc2O)Nc2cc(O)ccc21`, 2.3 µM.
On the same count and under the same terms, under `COc1cc(OC)c2c(c1)O/C(=C\c1ccc(O)cc1O)C2=O` stands more than 100 µM; under `Nc1c(C(=O)c2ccc(O)cc2O)oc2c(O)cccc12`, more than 100 µM; under `O=C1c2ccccc2C(=O)N1Cc1ccc(O)cc1O`, more than 100 µM.
Turning to `COc1cc(O)ccc1/C=C1\Oc2cc(O)ccc2C1=O`, the IC50 is more than 100 µM.
`O=C1/C(=C/c2ccc(O)cc2O)Oc2ccccc21` returned an IC50 of 18 µM.
Molecule `O=C1/C(=C/c2ccc(O)cc2O)Sc2ccccc21` came in with an IC50 of 5.9 µM.
In the case of `CN(C)c1ccc2c(c1)O/C(=C\c1ccc(O)cc1O)C2=O`, the IC50 was more than 100 µM.
`O=C1/C(=C/c2ccc(O)cc2O)Oc2c1ccc(O)c2I`: inhibition was half-maximal at 32 µM (IC50).
Same read-out and setting: under `O=C1/C(=C/c2c(O)cc(O)cc2O)Oc2cc(O)ccc21` stands 15 µM.

The next data set addresses T1, Tyrosinase.
Assay: not given
Conditions: not given
The source holds these as a separate data set.
A word on the Ki: it is the dissociation constant of the complex between target and ligand, obtained from inhibition or displacement. Read a high Ki as a looser hold on the target. Take `O=C1/C(=C/c2ccc(O)cc2O)Oc2c(O)cccc21`: the affinity corresponds to a Ki of 0.55 µM.
The same measure, in the same setting: to `O=C1/C(=C/c2ccc(O)cc2O)Cc2c(O)cccc21` belongs 0.25 µM.

In a further data set the target is Mushroom tyrosinase (Agaricus bisporus, UniProt O42713+Q00024+C7FF04+C7FF05).
Assay: not given
Conditions: not given
`O=C1/C(=C/c2ccc(=O)n(O)c2)Oc2cc(O)ccc21` displayed a Ki of 1.27 µM.

For a further data set, the system named is MNT-1. As to the kind of experiment: cells. Conditions: Homo sapiens, MNT-1, 96 h.
Description: Inhibition of melanogenesis in human MNT-1 cells incubated for 96 hrs
Regarding `O=C1/C(=C/c2ccc(O)cc2O)Oc2c(O)cccc21`, the midpoint of inhibition, the IC50, lay at 32 µM.
The same measure, in the same setting: to `O=C1/C(=C/c2ccc(O)cc2O)Cc2c(O)cccc21` belongs 29 µM.

Tested on in the next data set: not listed separately
Nature of the data set: in vitro. Conditions: human, MNT-1 cells.
Description: Cytotoxicity against human MNT-1 cells
What is called CC50 is the concentration at which the toxic effect on the cells reaches its halfway point. Low values mean greater toxicity to the cells, high ones lower toxicity to the cells. `O=C1/C(=C/c2ccc(O)cc2O)Oc2c(O)cccc21` had a CC50 of 108 µM.
On the same count and under the same terms, to `O=C1/C(=C/c2ccc(O)cc2O)Cc2c(O)cccc21` belongs 91 µM.

Compound in a further data set: O=C1/C(=C/c2ccc(O)cc2O)Cc2c(O)cccc21
Assay: not given
The format is cell-based. Conditions: Homo sapiens; HEK293T; dose 0-8 µM, time 1.0 hrs.
For orientation: Km means the substrate concentration at which the rate is half of its maximum. As to B1, the Km was 161 µM.

Compound in the next data set: O=C1/C(=C/c2ccc(O)cc2O)Oc2c(O)cccc21
Assay: not given
The format is cell-based. The conditions noted are these: Homo sapiens; HEK293T; dose 0-8 µM, time 1.0 hrs.
With B1, the Km came to 143 µM.

Compound in the next data set: O=C1/C(=C/c2ccc(O)cc2O)Cc2c(O)cccc21
Assay: not given
The format is cell-based. The conditions noted are these: Homo sapiens; HEK293T; dose 0-8 µM, time 1.0 hrs. The source holds these as a separate data set.
What is called Vmax is the rate approached at saturating substrate. With B1, the Vmax was determined as 5.18 µmol/min/mg.

Compound in a further data set: O=C1/C(=C/c2ccc(O)cc2O)Oc2c(O)cccc21
Assay: not given
Conditions: Homo sapiens; HEK293T; dose 0-8 µM, time 1.0 hrs. The format is cell-based. This is another data set of the same source.
B1: the Vmax came out at 4.86 µmol/min/mg.

Compound in the next data set: O=C1/C(=C/c2ccc(O)cc2O)Cc2c(O)cccc21
Assay: not given
The conditions noted are these: Homo sapiens; HEK293T; dose 0-8 µM, time 1.0 hrs. Type of data set: cell-based. This is another data set of the same source.
For orientation: kcat means the number of substrate molecules converted per active site and unit of time at saturation. With B1, the turnover number (kcat) worked out at 5.78 s⁻¹.

Compound in the next data set: O=C1/C(=C/c2ccc(O)cc2O)Oc2c(O)cccc21
Assay: not given
The conditions noted are these: Homo sapiens; HEK293T; dose 0-8 µM, time 1.0 hrs. The format is cell-based. This is another data set of the same source.
For B1, the kcat stood at 5.41 s⁻¹.

Source of the values: ChEMBL document CHEMBL5352459, “Resorcinol-based hemiindigoid derivatives as human tyrosinase inhibitors and melanogenesis suppressors in human melanoma cells” (Eur J Med Chem, 2023).
